US6831104B2, “Insect pest eradication system” (priority 2000, dated 2004)
Where two headings read alike, the source gives them in different places.

How the values were obtained:
[1] = system: live fire ant colony; experiment: Test 8: ethanol and water; trans-dichloroethylene/ethanol solution then Diazinon solution; design: species or system Red Fire Ant; details: in vivo
Description: In eighth and ninth tests, the method of the seventh test was duplicated using two other alcohols, namely ethanol and isopropanol.

[2] = system: live fire ant colony; details: in vivo
[3] = system: active fire ant colonies; experiment: Test 7: methanol alone; trans-dichloroethylene/methanol solution then Diazinon solution; type: in vivo, Red Fire Ant; details: for fire ant activity upon surface of mound: upon wetting first mound (about 5 inches) with the alcohol alone
Procedure: In the seventh test, active fire ant colonies were treated with methanol and then with a mixture of methanol plus trans-dichloroethylene. Additionally, an aqueous Diazinon® solution was applied to a targeted mound following application of the latter mixture. First, an active fire ant mound, approximately 5 inches in diameter, was treated with enough methanol to wet the surface of the mound. […] Then a solution of three parts methanol to one part trans-dichloroethylene was applied to the surface of a second fire ant mound approximately 8 inches in diameter. […] After five minutes, the second mound was pierced in several places with a steel shaft. A Diazinon® solution was then applied to the mound. At no time were ants observed exiting the second mound.

[4] = system: fire ant colony; experiment: Test 1: trans-dichloroethylene/vegetable oil mixture poured on fire ant colony in 2-gallon flowerpot; type: in vivo, Red Fire Ant
Procedure: These tests were conducted on active fire ant mounds located primarily upon an acre tract of residential property in Lake Charles, La.
In the first test, a mixture of 1 part trans-dichloroethylene to 2 parts vegetable oil (liquid Crisco® brand vegetable oil) was used. A fire ant colony that had established itself within a 2-gallon flowerpot was treated with approximately 1 cup of a trans-dichloroethylene/vegetable oil mixture. The technique involved pouring the liquid mixture onto the surface of the targeted fire ant mound. Observations of fire ant activity were made upon application and following application of the mixture. Afterward, the contents of the infested flower pot were emptied upon a flat, ply-wood surface and dissected. The following results of individual fire ant activity within the treated soil were observed: […]

[5] = system: active fire ant mound; experiment: General experimental method: knockout agent mixture then insecticide on fire ant mound, excavation of plugs; type: in vivo, Red Fire Ant; details: applied superficially to a fire ant mound
Description: The experimental method used herein entailed first preparing a mixture of 1 part trans-dichloroethylene (knockout agent) and 2 parts vegetable oil (liquid Crisco® was the vegetable oil most often used in the test) and then applying the mixture to the surface of an active fire ant mound 12 inches or less in surface diameter. The oil with the knockout agent is preferably biodegradable and miscible with the knockout agent. Units of measure are in pints, with the mixture comprising approximately ½ pint trans-dichloroethylene for every pint of vegetable oil. Approximately one-quarter (¼) pint of the trans-dichloroethylene/vegetable oil mixture was applied to a fire-ant hill about 12-inches in surface diameter.
The next step entailed applying a suitable insecticide to the fire ant mound. The insecticide was a commercially available Diazinon® applied one of two forms onto a fire ant mound that had been treated with the trans-dichloroethylene mixture. […]
Following all of these tests, the targeted fire ant colonies were excavated in the form of plugs. These “plugs” of excavated earth that had comprised the fire ant colony measured about 12″×12″×12. […] Hundreds, if not thousands, of dead individual worker ants, dead ant larvae and eggs were detected. […]

SMILES: CCO [anhydrous ethanol, ethanol]
- knock out of fire ants within a targeted mound (conclusion) [1]: neither serves to knock out fire ants

SMILES: CC(C)O [anhydrous isopropanol, isopropanol]
- knock out of fire ants within a targeted mound (conclusion) [2]: neither serves to knock out fire ants

SMILES: CO [methanol]
- knock out of fire ants within a targeted mound (conclusion) ([3]; in vivo): does not serve to knockout fire ants
- fire ant activity upon surface of mound [3]: observed exiting the mound
- fire ant activity upon surface of mound ([3]; listed as pure ethanol): Significant fire ant activity

SMILES: Cl/C=C/Cl [trans-dichloroethylene]
- toxicity to fire ants (conclusion) ([4]; small dosages, short periods of exposure): not itself toxic to fire ants
- evaporation from treated soil ([4]; treated soil exposed to the open air): rapidly evaporates
- incapacitation of individual insects in targeted fire ant mound [5]: completely incapacitated
